Test results published in article PMC6112750 (Oncotarget, 2018).

Target: T1, SUV39H2 (Homo sapiens, UniProt Q9H5I1)
T1 construct: N-terminal GST fused SUV39H2
Assay: radiometric SPA methyltransferase assay with biotin-H3 ([…]-21) peptide and [3H]-SAM
Type: biochemical

T1 sequence (Q9H5I1 whole entry, the tested form may be a part): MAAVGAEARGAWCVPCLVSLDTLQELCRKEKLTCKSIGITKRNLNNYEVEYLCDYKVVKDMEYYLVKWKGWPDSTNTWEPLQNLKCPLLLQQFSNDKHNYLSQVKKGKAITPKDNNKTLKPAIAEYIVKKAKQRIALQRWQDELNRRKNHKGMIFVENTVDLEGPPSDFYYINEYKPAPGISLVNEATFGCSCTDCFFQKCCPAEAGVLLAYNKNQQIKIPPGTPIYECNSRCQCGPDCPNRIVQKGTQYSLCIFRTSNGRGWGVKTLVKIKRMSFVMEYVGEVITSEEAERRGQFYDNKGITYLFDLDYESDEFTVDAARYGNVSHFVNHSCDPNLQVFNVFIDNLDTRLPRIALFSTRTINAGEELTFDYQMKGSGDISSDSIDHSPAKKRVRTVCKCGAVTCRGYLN

## COc1cc(OC)c(-c2cn3ccc(N[C@H]4CC[C@@H](NCc5ccc([N+](=O)[O-])cc5)CC4)cc3n2)cc1Cl [OTS193320, (1s,4s)-N^1-(2-(5-chloro-2,4-dimethoxyphenyl)imidazo[1,2-a]pyridin-7-yl)-N^4-(4-nitrobenzyl)cyclohexane-1,4-diamine]
  IC50: 22.2 nM
